Experiment [1] in a line: Inhibition of Gq (unknown origin) coupled with muscarinic M1 receptor expressed in CHO cells assessed as reduction in carbachol-induced IP1 accumulation pretreated for 1 hr followed by carbachol addition measured after 35 mins by HTRF assay. The experiment is classed as cell-based.
Experiment [2] can be described thus: Displacement of [3H]PSB-15900 from Gq (unknown origin) expressed in platelet cell membranes. On the set-up: species or system Homo sapiens. In general terms: In a radioligand displacement assay an active substance lowers the binding of a labelled ligand.

*1 amine or outer side, *2 acyl side, *3 side chain or, on linkers, in order; H or OH if unused. Where a SMILES comes first, the peptide text is derived from it. Bridges are numbered along the chain shown (N, C = ends). [ ]: non-standard residue; d: D form. The star is where a group is joined. Leu(3R-O(AcLeu(3R-OH))) = CC(=O)N[C@H](C(=O)O[C@H](C(C)C)[C@H](N)C(=O)O)[C@H](O)C(C)C; Leu(3R-OH,Nα-propionyl) = CCC(=O)N[C@H](C(=O)*)[C@H](O)C(C)C; X1 = CC(C)[C@@H](O[*:3])[C@H](N[*:1])C(=O)[*:2]; NMeT = CN[C@H](C(=O)O)[C@@H](C)O; dPhLac = O=C(O)[C@H](O)Cc1ccccc1; NMeA = CN[C@@H](C)C(=O)O; NMeDha = C=C(NC)C(=O)O

As to `C=C1C(=O)N[C@@H](C)C(=O)N(C)[C@@H](C)C(=O)N[C@@H]([C@H](OC(=O)[C@@H](NC(=O)CC)[C@H](O)C(C)C)C(C)C)C(=O)N(C)[C@@H]([C@@H](C)OC)C(=O)O[C@H](C(C)C)[C@H](NC(=O)CCO)C(=O)O[C@H](Cc2ccccc2)C(=O)N1C`, the IC50 in experiment [1] is 2.29 to 16.2 nM. In addition, the pIC50 in experiment [2] was 7.79 to 8.64.
Take `C=C1C(=O)N[C@@H](C)C(=O)N(C)[C@@H](C)C(=O)N[C@@H]([C@H](OC(=O)[C@@H](NC(=O)CC)[C@H](O)C(C)C)C(C)C)C(=O)N(C)[C@@H]([C@@H](C)OC)C(=O)O[C@H](C(C)C)[C@H](NC(C)=O)C(=O)O[C@H](Cc2ccccc2)C(=O)N1C` (Ac-[X1][dPhLac][NMeDha]A[NMeA][X1](Leu(3R-OH,Nα-propionyl))[NMeT](Me); ester 1-C): the concentration for half-maximal inhibition (IC50) in experiment [1] was 2.29 to 16.2 nM. The pIC50 in experiment [2] lay in the range of 7.79 to 8.64.
Taken in the same sequence, the figures for `C=C1C(=O)N[C@@H](C)C(=O)N(C)[C@@H](C)C(=O)N[C@@H]([C@H](OC(=O)[C@@H](NC(C)=O)[C@H](O)C(C)C)C(C)C)C(=O)N(C)[C@@H]([C@@H](C)OC)C(=O)O[C@H](C(C)C)[C@H](NC(C)=O)C(=O)O[C@H](Cc2ccccc2)C(=O)N1C` (Ac-[X1][dPhLac][NMeDha]A[NMeA][Leu(3R-O(AcLeu(3R-OH)))][NMeT](Me); ester 1-C) were 2.29 to 16.2 nM and 7.79 to 8.64.

Usually IC50 stands for the concentration that gives 50% inhibition. The pIC50 is the IC50 on a negative log10 scale, so that one unit is a factor of ten.
